Data as given in paper PMC7867085, “In Vitro and In Vivo Antitumor Activity of Indolo[2,3-b] Quinolines, Natural Product Analogs from Neocryptolepine Alkaloid” (Molecules, 2021).

Tested on: Swiss albino mice
Assay: Acute / short-term toxicity study, single subcutaneous dose
Type: in vivo
Settings: for No. of Death: 7 mice; for No. of Death / % Mortality: observed 24 h
Method: To confirm the safety of indoloquinoline compounds, acute and short-term toxicity studies were done. Forty-two Swiss albino mice were divided into six groups of seven mice each. The first five groups were subcutaneously injected in single graded doses. The first five groups were given a single dose of graded doses (400, 800, 1200, 1600, and 2000 mg/kg body weight) of indoloquinoline analog containing 11-substituted N-methyl piperazinyl side-chain 6d by the subcutaneous route, while the last group received 0.2 mL of (water: DMSO, 7:3) by the same route. The animals were then observed for 24 h for toxicity signs and death. The LD50 of 6d was calculated using the arithmetic methods of Karber as modified by Aliu and Nwude. The mortality rates and calculated LD50 are presented in (Table 3).

5-Methyl-N-(4-methylpiperazin-1-yl)-5H-indolo[2,3-b] Quinolin-11-amine [Compound 6d]
No. of Death (400 mg/kg SC single dose): 0
% Mortality (400 mg/kg SC single dose): 0%
No. of Death (800 mg/kg SC single dose): 2
% Mortality (800 mg/kg SC single dose): 28.5%
No. of Death (1200 mg/kg SC single dose): 4
% Mortality (1200 mg/kg SC single dose): 57.1%
No. of Death (1600 mg/kg SC single dose): 6
% Mortality (1600 mg/kg SC single dose): 85.7%
No. of Death (2000 mg/kg SC single dose): 7
% Mortality (2000 mg/kg SC single dose): 100%
LD50 (subcutaneous, mice, arithmetic method of Karber): 1000 mg/kg
